We go through six compounds from patent US5962466A, “Reduction of hair growth using inhibitors of matrix metalloproteinases” (priority 1998, dated 1999).

In assay [1] the target is T1, MMP-2 (72 kD collagenase) (Mesocricetus auratus, UniProt A0A1U7R1N2).
T1 construct: Flank organ hair follicles were removed from untreated hamsters and homogenized in a buffer; from tissue; host or cells: hamster flank organ hair follicle homogenate
The experiment in a line: Zymographic assay of MMP-2 in flank organ hair follicle homogenates. Type of assay: biochemical, hamster. The note with it: read-out: Percent Inhibition of Flank Organ MMP-2 Collagenase Activity. How it is done:
(§1) The matrix metalloproteinases MMP-2 (72 kD collagenase) and MMP-9 (92 kD collagenase) were assayed in flank organ hair follicle homogenates using a zymographic assay. Zymography is an electrophoretic technique used to identify proteolytic activity in enzymes separated in polyacrylamide gels under nondenaturing conditions (Kleiner and Stetler-Stevenson, Analytical Biochemistry 218: 325-329, 1994). Flank organ hair follicles were removed from untreated hamsters and homogenized in a buffer containing 25 mM Tris, pH 7.5, and 50 mM sucrose. Samples of the homogenate were added to an equal volume of zymogram sample buffer containing 63 mM Tris-HCl, pH 6.8, 10% glycerol, 2% SDS, and 0.0025% bromophenol blue. (Note: all buffers and acrylamide gels were obtained from Novex, San Diego, Calif.). The samples were incubated for 10 minutes at room temperature and then loaded onto a precast 10% Tris-Glycine gel with 0.1% gelatin incorporated throughout the gel. The gel was electrophoresed at 125 constant volts for about 90 minutes. The gel was incubated for 30 minutes in renaturing buffer consisting of 2.5% triton X-100 followed by incubation in developing buffer which contained 10 mM Tris-base, 40 mM Tris-HCl, 200 mM NaCl, 5 mM CaCl2, and 0.02% Brij 35. The developing buffer was decanted after 30 minutes and replaced with fresh buffer for incubation overnight.
(§2) For inhibition experiments, the inhibitor was included in the renaturing and development buffer steps. The gel was stained with Coomassie blue 0.25% for 1 hour and then destained overnight. Transparent bands were visualized against a blue background. MMP-2 and MMP-9 standards were supplied by Oncologix (Gaithersburg, Md.). The relative degree of digestion, representing collagenase activity, was quantitated by scanning photographs of the gels using Adobe Photoshop (Adobe Systems Inc., Mountain View, Calif.) and IPLab Gel (Signal Analytics, Vienna, Va.) software. The images were digitally inverted so that the integrations of bands would be reported as positive values. This method of analysis was standardized with respect to protein concentration.

The subject of a further assay is flank organ hair growth. The experiment in a line: Golden Syrian hamster assay (flank organ hair mass). Format: in vivo. The following applies: topical, 13 applications. The text has this:
Male intact Golden Syrian hamsters are considered acceptable models for human beard hair growth in that they display oval shaped flank organs, one on each side, each about 8 mm. in major diameter, which grow thick black and coarse hair similar to human beard hair. These organs produce hair in response to androgens in the hamster. To evaluate the effectiveness of a composition including an inhibitor of an MMP, the flank organs of each of a group of hamsters are depilated by applying a thioglycolate based chemical depilatory (Surgex). To one organ of each animal 10 μl. of vehicle alone once a day is applied, while to the other organ of each animal an equal amount of vehicle containing an inhibitor of a matrix metalloproteinase is applied. After thirteen applications (one application per day for five days a week), the flank organs are shaved and the amount of recovered hair (hair mass) from each is weighed. Percent-reduction of hair growth is calculated by subtracting the hair mass (mg) value of the test compound treated side from the hair mass value of the vehicle treated side; the delta value obtained is then divided by the hair mass value of the vehicle treated side, and the resultant number is multiplied by 100.
The above-described assay will be referred to herein as the "Golden Syrian hamster" assay.

The target in assay [2] is T2, MMP-9 (92 kD collagenase) (Mesocricetus auratus, UniProt A0A1U7R3J7).
T2 construct: Flank organ hair follicles were removed from untreated hamsters and homogenized in a buffer; from tissue; host or cells: hamster flank organ hair follicle homogenate
The experiment in a line: Zymographic assay of MMP-9 in flank organ hair follicle homogenates. Type of assay: biochemical, hamster. The note with it: read-out: Percent Inhibition of Flank Organ MMP-9 Collagenase Activity. As to the method: as §1, §2

Read-outs that look alike come from different tables or passages of the source.

T2 sequence (A0A1U7R3J7 20-718): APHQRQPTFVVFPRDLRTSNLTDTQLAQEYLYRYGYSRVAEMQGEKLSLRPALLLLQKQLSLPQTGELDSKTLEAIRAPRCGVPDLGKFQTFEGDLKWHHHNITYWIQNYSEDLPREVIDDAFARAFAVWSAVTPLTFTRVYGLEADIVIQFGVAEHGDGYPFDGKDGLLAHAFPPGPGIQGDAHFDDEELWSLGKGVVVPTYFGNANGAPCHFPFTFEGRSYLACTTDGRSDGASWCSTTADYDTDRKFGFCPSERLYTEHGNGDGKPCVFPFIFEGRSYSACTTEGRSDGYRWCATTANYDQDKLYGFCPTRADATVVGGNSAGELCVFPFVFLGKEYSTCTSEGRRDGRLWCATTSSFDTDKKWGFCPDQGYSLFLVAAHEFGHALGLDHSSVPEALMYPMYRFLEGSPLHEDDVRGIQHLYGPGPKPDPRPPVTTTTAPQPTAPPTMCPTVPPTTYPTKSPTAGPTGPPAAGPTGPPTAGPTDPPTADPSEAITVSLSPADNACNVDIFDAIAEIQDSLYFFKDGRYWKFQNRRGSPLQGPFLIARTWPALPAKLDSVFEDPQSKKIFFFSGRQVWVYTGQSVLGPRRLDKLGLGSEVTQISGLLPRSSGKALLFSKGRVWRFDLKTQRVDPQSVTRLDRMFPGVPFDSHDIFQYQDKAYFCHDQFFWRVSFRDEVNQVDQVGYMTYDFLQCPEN
T1 sequence (A0A1U7R1N2 30-662): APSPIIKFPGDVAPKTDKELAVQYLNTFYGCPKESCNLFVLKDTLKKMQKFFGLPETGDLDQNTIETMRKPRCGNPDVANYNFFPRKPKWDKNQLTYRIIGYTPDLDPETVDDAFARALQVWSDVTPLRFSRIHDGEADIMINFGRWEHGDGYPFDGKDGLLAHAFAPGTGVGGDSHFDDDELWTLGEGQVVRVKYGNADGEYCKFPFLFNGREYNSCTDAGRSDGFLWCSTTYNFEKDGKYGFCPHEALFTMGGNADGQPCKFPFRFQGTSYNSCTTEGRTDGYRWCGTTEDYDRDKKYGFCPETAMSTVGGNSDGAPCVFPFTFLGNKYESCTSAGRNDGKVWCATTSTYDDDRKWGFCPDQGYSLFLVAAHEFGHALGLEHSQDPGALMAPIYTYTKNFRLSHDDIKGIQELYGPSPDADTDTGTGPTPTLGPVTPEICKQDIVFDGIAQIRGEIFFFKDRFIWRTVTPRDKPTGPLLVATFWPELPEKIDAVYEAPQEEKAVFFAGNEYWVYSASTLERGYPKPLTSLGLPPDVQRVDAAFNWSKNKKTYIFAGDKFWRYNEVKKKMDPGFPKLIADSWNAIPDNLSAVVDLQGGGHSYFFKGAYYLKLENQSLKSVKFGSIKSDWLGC

Usually inhibition stands for the share of the control response that was lost under treatment. `CN(C)c1ccc(O)c2c1C[C@H]1C[C@H]3[C@H](N(C)C)C(O)=C(C(N)=O)C(=O)[C@@]3(O)C(O)=C1C2=O` [Minocycline, 7-dimethylamino-6-dimethyl-6-deoxytetracycline]: the inhibition at 1000 µM in assay [1] (concentration 1 mM) was 100%. Moreover, in the assay with flank organ hair growth (dose 10%, Vehicle A, pH 4.0), the “% Reduction of hair mass” value is listed as 63 ± 6% and the “Hair Mass (mg) Treated” value was 0.82 ± .11 mg. Also, the inhibition at 1000 µM in assay [2] (concentration 1 mM) is 100%.
For the compound `C[C@H]1c2cccc(O)c2C(O)=C2C(=O)[C@]3(O)C(O)=C(C(N)=O)C(=O)[C@@H](N(C)C)[C@@H]3[C@@H](O)[C@@H]21` [Doxycycline, α-6-deoxy-5-hydroxytetracycline], the inhibition at 100 µM came to 89% in assay [1] (concentration 0.1 mM) and 28% in assay [2] (concentration 0.1 mM). For the same compound, the inhibition at 500 µM in assay [1] (concentration 0.5 mM) and in assay [2] (concentration 0.5 mM) was 100% in each case. The “% Reduction of hair mass” value with flank organ hair growth (dose 10%, Vehicle A, pH 5.5) was found to be 27 ± 9%. For the same compound, in the assay on flank organ hair growth (dose 10%, Vehicle A, pH 5.5), the “Hair Mass (mg) Treated” value is recorded as 1.73 ± .22 mg.
In the case of `C=C1c2cccc(O)c2C(=O)C2=C(O)[C@]3(O)C(=O)C(C(N)=O)=C(O)[C@@H](N(C)C)[C@@H]3[C@@H](O)[C@H]12` [Methacycline, 6-methylene oxytetracycline], in assay [1] (concentration 1 mM), the inhibition at 1000 µM is 100%. In the assay with flank organ hair growth (dose 10%, Vehicle A, pH 4.0), the “% Reduction of hair mass” value amounted to 57 ± 9% and the “Hair Mass (mg) Treated” value was 0.68 ± .11 mg. Moreover, the inhibition at 1000 µM in assay [2] (concentration 1 mM) was determined as 100%.
In the case of `c1cnc2c(c1)ccc1cccnc12` [1,10-Phenanthroline, 1,10-phenanthroline], in assay [1], the inhibition at 100 µM came to 100% and the inhibition at 500 µM was 100%. Also, in the assay on flank organ hair growth (dose 5%, Vehicle A, pH 7.0), the “% Reduction of hair mass” value worked out at 45 ± 9% and the “Hair Mass (mg) Treated” value is listed as 1.40 ± .24 mg. For the same compound, in assay [2] (concentration 0.1 mM), the inhibition at 100 µM was 100%. Besides, the inhibition at 500 µM in assay [2] (concentration 0.5 mM) worked out at 100%.
Regarding `CN(C)C1C(O)=C(C(N)=O)C(=O)C2(O)C(O)=C3C(=O)c4c(O)cccc4C(C)(O)C3CC12` (stereo not drawn) [Tetracycline, 4-(dimethylamino)-1,4,4a,5,5a,6,11,12a-octahydro-3,6,10,12,12a-pentahydroxy-6-methyl-1,11-dioxo-2-naphthacenecarboxamide], in assay [1], the inhibition at 100 µM turned out to be 31%, the inhibition at 500 µM came out at 64% and the inhibition at 1000 µM worked out at 100%. Moreover, in the assay with flank organ hair growth (dose 10%, Vehicle B, pH 4.5), the “% Reduction of hair mass” value was 56 ± 9% and the “Hair Mass (mg) Treated” value is reported as 0.67 ± .10 mg. Moreover, in assay [2], the inhibition at 100 µM came out at 49%, the inhibition at 500 µM stood at 70% and the inhibition at 1000 µM was 100%.
As to `O=Cc1ccc(O)c(O)c1` [Protocatechuic aldehyde, 3,4-dihydroxybenzaldehyde], in the assay with flank organ hair growth (dose 10%, Vehicle A, pH 3.5), the “% Reduction of hair mass” value came out at 32 ± 9% and the “Hair Mass (mg) Treated” value is given as 0.92 ± .13 mg.
